Assay results from patent US20150191484A1, “NOVEL COMPOUNDS HAVING A TETRACYCLIC IRIDOID SKELTON AND AN ANTI-TRYPANOSOMAL AGENT COMPRISING THE SAME AS AN ACTIVE INGREDIENT” (NATIONAL UNIVERSITY CORPORATION TOKYO MEDICAL AND DENTAL …, priority 2014, published 2015).
Entries after “also recorded” stand apart in the source; their conditions may differ.

Legend:
[1] = test system: GUTat 3.1 strain of the bloodstream forms of T. b. brucei parasites; test: Alamar Blue assay (trypanocidal activity); type: cell-based, Trypanosoma brucei brucei
Experimental: (§1) The GUTat 3.1 strain of the bloodstream forms of T. b. brucei parasites was used for this study. Parasites were cultured in vitro according to the conditions established by Yabu et al, 1998.
(§2) Parasites were used when they reached a confluent concentration of 1×10^6 parasites/ml. Estimation of parasitemia was done with the Neubauer's counting chamber. Parasites were diluted to a concentration of 3×10^5 parasites/ml with HMI-9 medium and used for the various experiments.
The Alamar Blue assay was carried out in a 96-well plate. About 1.5×10^4 Parasites were seeded with varied concentrations of the Morinda lucida crude extract, ranging from as low as 0.78 μg/ml to as high as 200 μg/ml, in a ratio of 1:1 in 100 μl volume per well. Berberine, a compound known as anti-trypanocidal agent, was used as a positive control. […] The parasites were incubated with the plant extracts for 24 hours at 37° C. and under 5% CO2. After 24 hours, 10% Alamar Blue dye was added to each well and re-incubated for another 24 hours under the same conditions but in darkness. After a total of 48 hours, the plate was read for absorbance at 540 nm using the TECAN Sunrise Wako Spectrophotometer. An Absorbance-concentration (extract) curve was drawn and the IC50 value of the plant extract was extrapolated. Alamar Blue assay was also performed on the fractions and compounds purified from Morinda Lucida to determine their IC50 values. The IC50 values obtained were compared with that of the positive control and trypanocidal activity determined.

[2] = MTT cytotoxicity assay, KATOIII; type: cell-based, human; details: human, KATOIII stomach cancer cells; KATOIII stomach cancer, 48 h, MTT
Experimental: (§3) The cytotoxic activity of natural products against mammalian cells is an important point in the search for active compounds with biological activity. […] In order to confirm the selective and potent anti-trypanosomal activity of ML-2-2 and ML-2-3, we examined their cytotoxicity in a panel of human cell lines including two human fibroblastic and 8 human cancer-derived cell lines. Cells were seeded in 96-well microplates and incubated with ML-2-2 and ML-2-3 for 48 h at 37° C. in a 5% CO2 humidified incubator. The viabilities of cells were determined with the MTT (3-(4,5-dimethylthiazol-2-yl)-2-5-diphenyltetrazolium bromide) assay. The selectivity index (SI) was determined using the following equation: IC50 against human cells/IC50 against T. brucei. The IC50 values of ML-2-3 were higher than those of ML-2-2 in all the cell lines examined. […] The SI of ML-2-2 indicates values below 1.00 in most cell lines. On the other hand, SI values of ML-2-3 were much higher than those of ML-2-2 in all tested cell lines.

[3] = test system: KATOIII (stomach cancer); test: MTT cytotoxicity assay, KATOIII; type: cell-based, human; details: IC50 against KATOIII / IC50 against T. brucei
Experimental: as §3

[4] = test system: Trypanosoma cells; test: Nexin apoptosis assay (FACS); type: cell-based, Trypanosoma brucei brucei
Experimental: as §1, §2
This assay was performed to detect both Phosphatidylserine (PS) signal and fracture of nuclear membraneas markers of apoptosis. Seeding and incubation of parasites with plant materials (extracts, fractions and compounds) were done under the same conditions in Alamar Blue assay. […] The contents of the wells were then subjected to FACS analysis using, the Millipore guava easyCyte 5HT FACS machine for the sorting and estimation of apoptotic parasites according to the manufacturer's instructions.

[5] = test system: HL-60 (leukemia); test: MTT cytotoxicity assay, HL-60; type: cell-based, human; details: IC50 against HL-60 / IC50 against T. brucei
Experimental: as §3

[6] = MTT cytotoxicity assay, HL-60; type: cell-based, human; details: human, HL-60 leukemia cells; HL-60 leukemia, 48 h, MTT
Experimental: as §3

[7] = test system: Trypanosoma cells; test: Cell cycle assay (FACS); type: cell-based, Trypanosoma brucei brucei
Experimental: as §1, §2
This assay was performed to investigate any abnormal change in the parasites' cell cycle which may be caused by extracts/compounds with trypanocidal effect. […] The parasites were collected and transferred into 15 ml centrifuge tubes and centrifuged at 1700 rpm for 10 min, after which the supernatant was discarded. The pelleted parasites were re-suspended in 5 ml PBS solution and vortexed to form a suspension. The parasite suspension was centrifuged at 1700 rpm for 10 min and the supernatant discarded. The pelleted parasites were re-suspended in 1.5 ml of PBS and vortexed thoroughly before adding 3.5 ml absolute EtOH gradually to a final volume of 5 ml 70% EtOH. The parasites were then fixed at −20° C. for 1 h. The cell suspension was then centrifuged at 1700 rpm for 10 min and the supernatant discarded. Pelleted parasites were re-suspended in 200 μl of Guava Cell Cycle reagent, which has Propidium Iodide as its main constituent and incubated at room temperature for 30 min. The solution was transferred to wells of 96-well plate. The well contents were then subjected to FACS analysis using the Millipore guava easyCyte 5HT FACS machine, for the sorting of parasites according to the manufacturer's instructions.

[8] = test system: various human cells; test: MTT cytotoxicity, panel of human cell lines (summary); type: cell-based; details: IC50 against human cells / IC50 against Trypanosoma
Source text: ML-2-3 has low cytotoxicity on mammalian cells. The cytotoxicity of ML-2-3 is very low compared to the cytotoxicity of ML-2-2. The cytotoxicity of ML-2-2 and ML-2-3 on mammalian cells can be compared as IC50 value. The usefulness of the compounds for a therapeutic agent for mammals including humans can be compared by a selectivity index (SI). For a compound to be accepted as a useful therapeutic agent for mammals means that the compound should have high anti-trypanosomal activity but low cytotoxicity on mammals. The selectivity index (SI) is represented by an equation: IC50 of cytotoxicity on mammalian cells/IC50 of anti-trypanosomal activity. In particular, it is represented by an equation: IC50 against human cells/IC50 against Trypanosoma such as Trypanosoma brucei. […] IC50 (μM) of ML-2-3 against HF-19 and HCT-15 is more than 50, which means that ML2-3 is non-toxic at the highest assayed dose in HF-19 and HCT-15. […]
The cytotoxic activity of natural products against mammalian cells is an important point in the search for active compounds with biological activity. […] The viabilities of cells were determined with the MTT (3-(4,5-dimethylthiazol-2-yl)-2-5-diphenyltetrazolium bromide) assay. The selectivity index (SI) was determined using the following equation: IC50 against human cells/IC50 against T. brucei. […]

COc1cc(/C=C2/C(=O)O[C@]34C=C[C@@H]5C(C(=O)O)=CO[C@H](O[C@@H]23)[C@@H]54)ccc1O [ML-2-3, (3aS,4aR,4a^1S,7aS,9aS,3E)-3-(4-hydroxy-3-methoxybenzylidene)-2-oxo-2,3,3a,4a,4a^1,7a-hexahydro-1,4,5-trioxadicyclopenta[a,hi]indene-7-carboxylic acid]
IC50 ([1]; T. b. brucei, Alamar Blue, 48 h, read-out: IC50 of anti-trypanosomal activity): 3.75 µM | inhibition of the growth of Trypanosoma brucei brucei (in words) ([1]; in vitro): the most potent in vitro activity | IC50 at 48 h [2]: 24.8 µM | SI (selectivity index) [3]: 6.62 | proportion of cells at early stage of apoptosis ([4]; 5 μM, 3 hours incubation): 2.5% | proportion of cells at early stage of apoptosis ([4]; 5 μM, 12 hours of incubation): about 10% | incubation time at which significant increase in proportion of late stage apoptotic cells was observed ([4]; 5 μM, time course 0, 3, 6, 9 and 12 hours): around 6 hours | induction of apoptosis ([4]; 6.25 μM, 24-hour incubation): induced strong apoptosis | early stage apoptotic cells ([4]; 6.25 μM, 24-hour incubation, negative control 0.2%): 7.8% | late stages apoptotic cells ([4]; 6.25 μM, 24-hour incubation, negative control none): 4.4% | induction of apoptosis in Trypanosoma cells ([4]; same concentration (6 μM)): strongly induced apoptosis | SI (selectivity index) [5]: 6.81 | IC50 at 48 h [6]: 25.5 µM | cells with low DNA content (sub-G1 phase) ([7]; 15 μM): a large proportion of cells with low DNA content were detected as sub-G1 phase | numbers of cells in the G2 and M phase of cell cycle ([7]; four times of IC50: 15 μM ML-2-3, 5 μM ML-2-2, 24 hours): significant decrease; also recorded: caused alteration of G2/M phase | selectivity index (SI), range over the human cell lines [8]: ≥ 3.2 to more than 13
